# Laboratory results taken from ChEMBL document CHEMBL1145186, “Extravascular transport of drugs in tumor tissue: effect of lipophilicity on diffusion of tirapazamine analogues in multicellular layer cultures” (J Med Chem, 2005).
# Assay: Partition coefficient (logP) of the compound
# Type: physicochemical
row,logP,Compound
1,1.51,COCCc1cccc(Nc2n[n+]([O-])c3ccccc3[n+]2[O-])c1
2,1.43,[O-][n+]1nc(Nc2ccccc2)[n+]([O-])c2ccccc21
3,0.441,Nc1n[n+]([O-])c2cc(Cl)ccc2[n+]1[O-]
4,0.24,Cc1cccc2c1[n+]([O-])nc(N)[n+]2[O-]
5,0.127,Cc1ccc2c(c1)[n+]([O-])nc(N)[n+]2[O-]
6,-1.38,CS(=O)(=O)c1cccc2c1[n+]([O-])nc(N)[n+]2[O-]
7,-0.102,Nc1n[n+]([O-])c2cccc(Cl)c2[n+]1[O-]
8,0.48,Nc1n[n+]([O-])c2c(C(F)(F)F)cccc2[n+]1[O-]
9,0.068,Cc1ccc2c(c1)[n+]([O-])c(N)n[n+]2[O-]
10,-1.15,CS(=O)(=O)c1ccc2c(c1)[n+]([O-])nc(N)[n+]2[O-]
11,0.166,Nc1n[n+]([O-])c2c(Cl)cccc2[n+]1[O-]
12,-2.62,OC[C@@H](O)[C@@H](O)[C@H](O)[C@H](O)CO [MANNITOL]
13,-0.342,Nc1n[n+]([O-])c2ccccc2[n+]1[O-] [TIRAPAZAMINE]
14,-2.01,NC(N)=O [UREA]

row,Compound,logP
1,CCN(CC)c1cccc2c1[n+]([O-])nc(N)[n+]2[O-],0.83
2,Nc1n[n+]([O-])c2cc(C(F)(F)F)ccc2[n+]1[O-],0.82
3,O=c1c2ccccc2[nH]c2ccccc12 [ACRIDONE],2.98
